Source: ChEMBL document CHEMBL1201862, “PubChem BioAssay data set” (2004)
Values joined by “and” are separate entries in the source; they are usually repeats but may differ in a detail not shown here. Equal entries are not always repeated.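 Each compound was tested at five concentrations against cells in 96-well plates for 48 hours. GI50: concentration for 50% inhibition of growth.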 Active and inactive are the calls of the source. Rule as the data show it: active = GI50 up to about 1.1 µM and inactive = higher.

How the values were obtained:
Assay in all cases: NCI anticancer screen, dose series, 48 h
NCI-H460 = tested on: NCI-H460
NCI-H23 = tested on: NCI-H23
SW-620 = tested on: SW-620
PC-3 = tested on: PC-3
RXF 393 = tested on: RXF 393
MOLT-4 = tested on: MOLT-4
KM12 = tested on: KM12
HOP-62 = tested on: HOP-62
Hs-578T = tested on: Hs-578T
HCT-116 = tested on: HCT-116
SF-268 = tested on: SF-268
SN12C = tested on: SN12C
EKVX = tested on: EKVX
A549 = tested on: A549
MDA-MB-231 = tested on: MDA-MB-231
HCC 2998 = tested on: HCC 2998
SF-539 = tested on: SF-539
K562 = tested on: K562
Malme-3M = tested on: Malme-3M
IGROV-1 = tested on: IGROV-1

Measured: GI50

CCOC(=O)c1c(-c2ccc(O)c(OC)c2)c(C#N)c(=S)n(C2OC(COC(C)=O)C(OC(C)=O)C(OC(C)=O)C2OC(C)=O)c1-c1ccccc1 (centres undefined)
inactive: NCI-H460 > 100 µM and 70.1 µM | NCI-H23 43.7 µM and 61.1 µM | SW-620 > 100 µM | PC-3 43.8 µM and 31.4 µM | RXF 393 > 100 µM and 58.9 µM | MOLT-4 48.9 µM and 31.9 µM | KM12 45.4 µM and 50.8 µM | HOP-62 61.4 µM | Hs-578T > 100 µM | HCT-116 47.9 µM and 63.2 µM | SF-268 > 100 µM and 70.6 µM | SN12C > 100 µM and 88.9 µM | EKVX 96.8 µM and 75.5 µM | A549 > 100 µM and 94.4 µM

CCOC(=O)C1=CNC2=N[C@H]3CCCC[C@@H]3N2C1=O
inactive: NCI-H460 > 100 µM | NCI-H23 > 100 µM | MDA-MB-231 > 100 µM | HCC 2998 > 100 µM | SF-539 > 100 µM | SW-620 > 100 µM | K562 > 100 µM | PC-3 > 100 µM | Malme-3M > 100 µM | MOLT-4 > 100 µM | KM12 > 100 µM | Hs-578T > 100 µM | HCT-116 > 100 µM | SF-268 > 100 µM | SN12C > 100 µM | EKVX > 100 µM | A549 > 100 µM | IGROV-1 > 100 µM

CC1CN=C(N(C)C(=O)Nc2ccc(Cl)c(Cl)c2)S1 (centres undefined)
inactive: NCI-H460 36 µM | NCI-H23 32.3 µM | MDA-MB-231 28.1 µM | HCC 2998 38.6 µM | SF-539 17.7 µM | SW-620 29.5 µM | K562 23.4 µM | PC-3 27.4 µM | Malme-3M 46.5 µM | MOLT-4 27.9 µM | KM12 32.4 µM | HOP-62 21.8 µM | Hs-578T 22.8 µM | HCT-116 39 µM | SF-268 27.9 µM | SN12C 26.5 µM | EKVX 32.4 µM | A549 27.7 µM | IGROV-1 27.2 µM

CCN(CC)c1ccc2cc(-c3nnc(-c4ccccc4O)o3)c(=O)oc2c1
inactive: NCI-H460 7.08 µM | NCI-H23 8.93 µM | HCC 2998 13.6 µM | SF-539 8.18 µM | SW-620 5.75 µM | K562 5.96 µM | PC-3 10.3 µM | Malme-3M 14.9 µM | MOLT-4 3.03 µM | KM12 12.1 µM | HOP-62 5.51 µM | Hs-578T 20.1 µM | HCT-116 5.97 µM | SF-268 6.92 µM | EKVX 17 µM | A549 13.6 µM | IGROV-1 3.12 µM

NC(=S)Nc1nc(=S)[nH]c2[nH]ccc12
inactive: NCI-H460 > 100 µM | NCI-H23 > 100 µM | MDA-MB-231 > 100 µM | SF-539 > 100 µM | SW-620 > 100 µM | K562 31 µM | PC-3 74.3 µM | MOLT-4 21.1 µM | KM12 26.2 µM | HOP-62 > 100 µM | Hs-578T 23.4 µM | HCT-116 90.8 µM | SF-268 20.2 µM | SN12C > 100 µM | EKVX 94.2 µM | A549 > 100 µM | IGROV-1 88.5 µM

O=C1OC(C2Cc3ccc4c(c3C2=O)CCCC4)c2ccccc21 (centres undefined)
inactive: NCI-H460 27.3 µM | NCI-H23 42.7 µM | MDA-MB-231 36.2 µM | HCC 2998 30.8 µM | SF-539 24.7 µM | SW-620 29.7 µM | K562 21.8 µM | PC-3 26.4 µM | Malme-3M 24 µM | MOLT-4 16.8 µM | KM12 44 µM | HOP-62 74.1 µM | Hs-578T 18 µM | HCT-116 40 µM | SF-268 49.2 µM | SN12C 28.5 µM | EKVX 44.6 µM | A549 35.9 µM | IGROV-1 44.3 µM

O=C(CSCC(=O)N/N=C\c1ccc(F)cc1F)N/N=C\c1ccc(F)cc1F
inactive: NCI-H460 > 100 µM | NCI-H23 > 100 µM | MDA-MB-231 > 100 µM | HCC 2998 > 100 µM | SF-539 > 100 µM | SW-620 > 100 µM | Malme-3M > 100 µM | RXF 393 > 100 µM | MOLT-4 > 100 µM | KM12 > 100 µM | HOP-62 > 100 µM | Hs-578T > 100 µM | HCT-116 > 100 µM | SF-268 > 100 µM | SN12C > 100 µM | EKVX > 100 µM | A549 > 100 µM | IGROV-1 > 100 µM

CCOC(=O)c1cccc([N+](=O)[O-])c1N
inactive: NCI-H460 > 100 µM | NCI-H23 > 100 µM | MDA-MB-231 > 100 µM | HCC 2998 > 100 µM | SF-539 > 100 µM | SW-620 > 100 µM | K562 > 100 µM | PC-3 > 100 µM | Malme-3M 19.1 µM | MOLT-4 > 100 µM | KM12 > 100 µM | HOP-62 > 100 µM | Hs-578T 41.2 µM | HCT-116 > 100 µM | SN12C > 100 µM | EKVX 6.11 µM | A549 > 100 µM | IGROV-1 > 100 µM

O=C(CCc1ccc(O)c(O)c1)c1ccc(O)c(O)c1O
inactive: NCI-H460 13 µM | NCI-H23 21.4 µM | MDA-MB-231 20.3 µM | HCC 2998 49.8 µM | SF-539 15.5 µM | SW-620 27.4 µM | K562 13.2 µM | PC-3 34.5 µM | Malme-3M 28.4 µM | MOLT-4 22.3 µM | KM12 17.3 µM | Hs-578T 23.6 µM | HCT-116 37.3 µM | SF-268 16.6 µM | SN12C 15.3 µM | EKVX 20 µM | A549 34.2 µM | IGROV-1 25.1 µM

C[C@]12CC[C@@H]3c4ccc(OS(N)(=O)=O)cc4CC[C@H]3[C@@H]1CCC2=O [EMATE]
inactive: NCI-H460 31.6 µM | NCI-H23 37.8 µM | MDA-MB-231 94 µM | HCC 2998 49.2 µM | SF-539 52.2 µM | SW-620 44.6 µM | K562 24.7 µM | Malme-3M 45.6 µM | RXF 393 63.4 µM | KM12 30.5 µM | HOP-62 55.2 µM | Hs-578T 10.5 µM | HCT-116 30.2 µM | SF-268 32.9 µM | SN12C 81.3 µM | EKVX 5.07 µM | A549 35 µM | IGROV-1 28.7 µM

Oc1cnc2c(O)cccc2c1 [JINEOL]
inactive: NCI-H460 31.9 µM | MDA-MB-231 52 µM | HCC 2998 43.4 µM | SF-539 30.3 µM | SW-620 45.5 µM | K562 51.3 µM | PC-3 36.8 µM | Malme-3M 34.8 µM | MOLT-4 41.7 µM | KM12 12.8 µM | HOP-62 26.7 µM | Hs-578T > 100 µM | HCT-116 40.8 µM | SF-268 33.2 µM | SN12C 37.5 µM | EKVX 15.9 µM | A549 40.7 µM | IGROV-1 20.3 µM
